According to the NIST ThermoML archive (doi:10.1016/j.jct.2013.05.019):
± gives the expanded uncertainty stated by the source.

Settings: Liquid; for viscosity: Falling or rolling sphere viscometry; for mass density: Vibrating tube method; for electrical conductivity: Alternating current cell with electrodes

Work on CC(=O)O.CCCCN [butylammonium acetate] yielded a viscosity (293.15 K, 101 kPa) of 771.69 ± 71 mPa·s, a mass density (293.15 K, 101 kPa) of 959.61 ± 0.23 kg/m3 and an electrical conductivity (298.15 K, 101 kPa) of 0.021 ± 0.001 S/m. It also gave a viscosity (298.15 K, 101 kPa) of 546.35 ± 44 mPa·s, a mass density (298.15 K, 101 kPa) of 956.44 ± 0.23 kg/m3 and a viscosity (303.15 K, 101 kPa) of 397.17 ± 28 mPa·s. The mass density (303.15 K, 101 kPa) was 953.33 ± 0.23 kg/m3, the viscosity (308.15 K, 101 kPa) was 294.59 ± 18 mPa·s and the mass density (308.15 K, 101 kPa) was 950.15 ± 0.23 kg/m3. It also gave a viscosity (313.15 K, 101 kPa) of 222.24 ± 11 mPa·s and a mass density (313.15 K, 101 kPa) of 946.98 ± 0.23 kg/m3.
In the case of CCCC[NH3+].O=[N+]([O-])[O-] [n-butylammonium nitrate], the viscosity (293.15 K, 101 kPa) is reported as 111.35 ± 3.6 mPa·s, the mass density (293.15 K, 101 kPa) is reported as 1104.68 ± 0.31 kg/m3 and the electrical conductivity (298.15 K, 101 kPa) is reported as 0.867 ± 0.017 S/m. For the same molecule, the viscosity (298.15 K, 101 kPa) was 89.95 ± 2.5 mPa·s, the mass density (298.15 K, 101 kPa) was 1101.52 ± 0.31 kg/m3 and the viscosity (303.15 K, 101 kPa) was 73.04 ± 1.8 mPa·s. The mass density (303.15 K, 101 kPa) was 1098.38 ± 0.31 kg/m3, the viscosity (308.15 K, 101 kPa) was 60.25 ± 1.3 mPa·s and the mass density (308.15 K, 101 kPa) was 1095.26 ± 0.31 kg/m3. It also gave a viscosity (313.15 K, 101 kPa) of 50.12 ± 1.1 mPa·s and a mass density (313.15 K, 101 kPa) of 1092.17 ± 0.3 kg/m3.
Molecule O [water] has a viscosity (293.15 K, 101.33 kPa) of 1.002 ± 0.021 mPa·s, a viscosity (298.15 K, 101.33 kPa) of 0.89 ± 0.019 mPa·s and a viscosity (303.15 K, 101.33 kPa) of 0.797 ± 0.017 mPa·s. It also gave a viscosity (308.15 K, 101.33 kPa) of 0.718 ± 0.015 mPa·s and a viscosity (313.15 K, 101.33 kPa) of 0.651 ± 0.014 mPa·s.
